From US20030181527A1, “Novel formulations of alpha-2,4-disulfophenyl-n-tert-butylnitrone” (priority 2000, published 2003)

Key:
Assay in all cases: Antimicrobial efficacy (European Pharmacopoeia 2000, Chapter 5.1.3)
Type in all cases: cell-based
C. albicans = conditions: 400 mg/ml
Procedure: (§1) The antimicrobial efficacy was tested for three different solutions:
(§2) i) α-(2,4-disulfophenyl)-N-tert-butylnitrone disodium salt, 10 mg/ml;
(§3) ii) α-(2,4-disulfophenyl)-N-tert-butylnitrone disodium salt, 400 mg/ml; and
(§4) iii) a carbonate buffer control.
(§5) The tests were performed according to European Pharmacopoeia 2000, Chapter 5.1.3, pages 259 to 260. Seven 10 ml vials were inoculated, one per test organism. During the tests, the vials were stored at controlled room temperature and protected from light. At different time intervals, samples were withdrawn and after appropriate dilutions the numbers of viable microorganisms (colony forming units per ml, CFU/ml) were determined using standard plate count procedures.

Ps. aeruginosa = system: Ps. aeruginosa
Procedure: as §1, §2, §3, §4, §5

A. niger = system: A. niger
Procedure: as §1, §2, §3, §4, §5

Bur. cepacia = system: Bur. cepacia
Procedure: as §1, §2, §3, §4, §5

CC(C)(C)[N+]([O-])=Cc1ccc(S(=O)(=O)[O-])cc1S(=O)(=O)[O-].[Na+].[Na+] [α-(2,4-disulfophenyl)-N-tert-butylnitrone disodium salt]
Number of CFUs per ml - Time after Inoculation (C. albicans; 7 days): <1 CFUs per ml
Number of CFUs per ml - Time after Inoculation (C. albicans; 14 days): <1 CFUs per ml
Number of CFUs per ml - Time after Inoculation (C. albicans; 21 days): <1 CFUs per ml
Number of CFUs per ml - Time after Inoculation (C. albicans; 28 days): <1 CFUs per ml
Number of CFUs per ml - Time after Inoculation (C. albicans; <1 min): 1.6 × 10^5 CFUs per ml
Number of CFUs per ml - Time after Inoculation (Ps. aeruginosa; 10 mg/ml, 6 h): 4.0 × 10^4 CFUs per ml
Number of CFUs per ml - Time after Inoculation (Ps. aeruginosa; 10 mg/ml, 24 h): 4.0 × 10^2 CFUs per ml
Number of CFUs per ml - Time after Inoculation (Ps. aeruginosa; 10 mg/ml, 48 h): 3.5 × 10^2 CFUs per ml
Number of CFUs per ml - Time after Inoculation (Ps. aeruginosa; 10 mg/ml, 7 days): ≦10 CFUs per ml
Number of CFUs per ml - Time after Inoculation (Ps. aeruginosa; 10 mg/ml, 14 days): <1 CFUs per ml
Number of CFUs per ml - Time after Inoculation (Ps. aeruginosa; 10 mg/ml, 21 days): <1 CFUs per ml
Number of CFUs per ml - Time after Inoculation (Ps. aeruginosa; 10 mg/ml, 28 days): <1 CFUs per ml
Number of CFUs per ml - Time after Inoculation (Ps. aeruginosa; 10 mg/ml, <1 min): 1.5 × 10^6 CFUs per ml
Number of CFUs per ml - Time after Inoculation (Ps. aeruginosa; 400 mg/ml, 6 h): 1.4 × 10^1 CFUs per ml
Number of CFUs per ml - Time after Inoculation (Ps. aeruginosa; 400 mg/ml, 24 h): <1 CFUs per ml
Number of CFUs per ml - Time after Inoculation (Ps. aeruginosa; 400 mg/ml, 48 h): <1 CFUs per ml
Number of CFUs per ml - Time after Inoculation (Ps. aeruginosa; 400 mg/ml, 7 days): <1 CFUs per ml
Number of CFUs per ml - Time after Inoculation (Ps. aeruginosa; 400 mg/ml, 14 days): <1 CFUs per ml
Number of CFUs per ml - Time after Inoculation (Ps. aeruginosa; 400 mg/ml, 21 days): <1 CFUs per ml
Number of CFUs per ml - Time after Inoculation (Ps. aeruginosa; 400 mg/ml, 28 days): <1 CFUs per ml
Number of CFUs per ml - Time after Inoculation (Ps. aeruginosa; 400 mg/ml, <1 min): 1.1 × 10^4 CFUs per ml
Reduction in colony forming units per ml (CFU/ml) (Ps. aeruginosa; 400 mg/ml, within 6 hours): ≥ 10^3 fold
Number of CFUs per ml - Time after Inoculation (A. niger; 10 mg/ml, 6 h): 4.5 × 10^4 CFUs per ml
Number of CFUs per ml - Time after Inoculation (A. niger; 10 mg/ml, 24 h): 5.0 × 10^4 CFUs per ml
Number of CFUs per ml - Time after Inoculation (A. niger; 10 mg/ml, 48 h): 5.5 × 10^4 CFUs per ml
Number of CFUs per ml - Time after Inoculation (A. niger; 10 mg/ml, 7 days): 3.0 × 10^4 CFUs per ml
Number of CFUs per ml - Time after Inoculation (A. niger; 10 mg/ml, 14 days): 1.0 × 10^3 CFUs per ml
Number of CFUs per ml - Time after Inoculation (A. niger; 10 mg/ml, 21 days): 1.0 × 10^2 CFUs per ml
Number of CFUs per ml - Time after Inoculation (A. niger; 10 mg/ml, 28 days): ≦10 CFUs per ml
Number of CFUs per ml - Time after Inoculation (A. niger; 10 mg/ml, <1 min): 5.0 × 10^4 CFUs per ml
Number of CFUs per ml - Time after Inoculation (A. niger; 400 mg/ml, 6 h): 5.9 × 10^4 CFUs per ml
Number of CFUs per ml - Time after Inoculation (A. niger; 400 mg/ml, 24 h): 3.4 × 10^4 CFUs per ml
Number of CFUs per ml - Time after Inoculation (A. niger; 400 mg/ml, 48 h): 1.7 × 10^4 CFUs per ml
Number of CFUs per ml - Time after Inoculation (A. niger; 400 mg/ml, 7 days): 1.9 × 10^2 CFUs per ml
Number of CFUs per ml - Time after Inoculation (A. niger; 400 mg/ml, 14 days): <1 CFUs per ml
Number of CFUs per ml - Time after Inoculation (A. niger; 400 mg/ml, 21 days): <1 CFUs per ml
Number of CFUs per ml - Time after Inoculation (A. niger; 400 mg/ml, 28 days): <1 CFUs per ml
Number of CFUs per ml - Time after Inoculation (A. niger; 400 mg/ml, <1 min): 1.0 × 10^5 CFUs per ml
Number of CFUs per ml - Time after Inoculation (Bur. cepacia; 10 mg/ml, 6 h): 1.5 × 10^3 CFUs per ml
Number of CFUs per ml - Time after Inoculation (Bur. cepacia; 10 mg/ml, 24 h): <1 CFUs per ml
Number of CFUs per ml - Time after Inoculation (Bur. cepacia; 10 mg/ml, 48 h): <1 CFUs per ml
Number of CFUs per ml - Time after Inoculation (Bur. cepacia; 10 mg/ml, 7 days): <1 CFUs per ml
Number of CFUs per ml - Time after Inoculation (Bur. cepacia; 10 mg/ml, 14 days): <1 CFUs per ml
Number of CFUs per ml - Time after Inoculation (Bur. cepacia; 10 mg/ml, 21 days): <1 CFUs per ml
Number of CFUs per ml - Time after Inoculation (Bur. cepacia; 10 mg/ml, 28 days): <1 CFUs per ml
Number of CFUs per ml - Time after Inoculation (Bur. cepacia; 10 mg/ml, <1 min): 3.5 × 10^5 CFUs per ml
Number of CFUs per ml - Time after Inoculation (Bur. cepacia; 400 mg/ml, 6 h): 8.7 × 10^1 CFUs per ml
Number of CFUs per ml - Time after Inoculation (Bur. cepacia; 400 mg/ml, 24 h): <1 CFUs per ml
Number of CFUs per ml - Time after Inoculation (Bur. cepacia; 400 mg/ml, 48 h): <1 CFUs per ml
Number of CFUs per ml - Time after Inoculation (Bur. cepacia; 400 mg/ml, 7 days): <1 CFUs per ml
Number of CFUs per ml - Time after Inoculation (Bur. cepacia; 400 mg/ml, 14 days): <1 CFUs per ml
Number of CFUs per ml - Time after Inoculation (Bur. cepacia; 400 mg/ml, 21 days): <1 CFUs per ml
Number of CFUs per ml - Time after Inoculation (Bur. cepacia; 400 mg/ml, 28 days): <1 CFUs per ml
Number of CFUs per ml - Time after Inoculation (Bur. cepacia; 400 mg/ml, <1 min): 1.1 × 10^5 CFUs per ml
Reduction in colony forming units per ml (CFU/ml) (Bur. cepacia; 400 mg/ml, within 6 hours): ≥ 10^3 fold
